Assay results from ChEMBL document CHEMBL1201862, “PubChem BioAssay data set” (2004).
“And” between values parts separate entries of the source, which are not always exact repeats. Equal entries are not always repeated. Blank lines part the entries; values can stand above or below the compound they belong to. The source made the active and inactive calls.

What was measured:
[1] = P. falciparum Dd2 growth inhibitors, dose response, SYBR Green, cherry-picked samples (AID 1159567); type: functional, cell-based
[2] = toxicity to human HepG2 hepatoma cells – cell-based, plate reader, dry powder samples, cytotoxicity control, dose response (AID 1159569); type: functional;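 further: inhibitor potency with signal falling toward the positive control level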
[3] = growth inhibition of yeast DHODH-expressing 3D7 parasites – SYBR Green, dry powder samples, dose response (AID 1159570); type: functional, cell-based;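 further: parasite growth measured after 72 hours of compound exposure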
[4] = growth inhibition of PfATP4-mutant resistant parasites – NITD609-resistant line, SYBR Green, dry powder, dose response (AID 1159571); type: functional, cell-based;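 further: parasites synchronized at ring stage by sorbitol before testing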
[5] = Dd2 malaria parasite growth inhibition potency – SYBR Green, dry powder samples, dose response (AID 1159566); type: functional, cell-based;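 further: potency for growth inhibition with lower SYBR green DNA signal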
[6] = rise of 4N DNA cells, HeLa – IC50, dose response (AID 1117351); type: functional, cell-based
[7] = rise of 2N DNA cells, HeLa – IC50, dose response (AID 1117349); type: functional, cell-based
[8] = target: T1, Tyrosine-protein phosphatase non-receptor type 7 (Homo sapiens, UniProt P35236); experiment: HePTP tyrosine phosphatase activity blockers – biochemical, absorbance, leukemia target, primary screen (AID 521); type: functional
T1 sequence (P35236 whole entry): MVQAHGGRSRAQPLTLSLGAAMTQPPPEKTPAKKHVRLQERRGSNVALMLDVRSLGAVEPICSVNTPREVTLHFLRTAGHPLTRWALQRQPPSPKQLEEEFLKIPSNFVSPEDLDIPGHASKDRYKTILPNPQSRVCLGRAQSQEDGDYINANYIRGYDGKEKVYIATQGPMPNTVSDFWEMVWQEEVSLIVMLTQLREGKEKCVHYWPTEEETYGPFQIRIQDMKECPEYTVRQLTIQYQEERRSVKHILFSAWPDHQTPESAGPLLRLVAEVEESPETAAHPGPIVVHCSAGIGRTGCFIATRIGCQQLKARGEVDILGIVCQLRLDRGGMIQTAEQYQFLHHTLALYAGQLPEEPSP

[9] = target: T2, Beta-2 adrenergic receptor (Homo sapiens, UniProt P07550); experiment: Dose response for HTS for Beta-2AR agonists via FAP method from Powderset1.; type: functional
T2 sequence (P07550 whole entry): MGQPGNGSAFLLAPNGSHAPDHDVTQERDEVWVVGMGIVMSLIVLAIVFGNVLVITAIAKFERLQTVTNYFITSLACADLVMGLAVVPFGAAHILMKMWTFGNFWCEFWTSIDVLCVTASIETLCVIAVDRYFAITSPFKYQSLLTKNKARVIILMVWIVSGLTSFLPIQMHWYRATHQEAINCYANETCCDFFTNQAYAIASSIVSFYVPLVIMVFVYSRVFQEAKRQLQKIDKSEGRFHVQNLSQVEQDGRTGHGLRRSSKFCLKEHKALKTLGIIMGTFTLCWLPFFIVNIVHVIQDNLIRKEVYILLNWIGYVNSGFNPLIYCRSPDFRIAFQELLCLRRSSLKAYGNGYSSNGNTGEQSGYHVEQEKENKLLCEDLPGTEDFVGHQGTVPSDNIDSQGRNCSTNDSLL

[10] = target: T2, Beta-2 adrenergic receptor; experiment: ADRB2 activation measured by internalization – cell-based, FAP fluorogen, flow cytometry, cherry pick 1, dose response (AID 588763); type: functional
[11] = target: T3, Cytochrome P450 2C19 (Homo sapiens, UniProt P33261); experiment: Cytochrome panel assay with activity outcomes. Panel member name: p450-cyp2c19 Compounds with AC50 equal or less than 10 uM are considered active; type: functional; conditions: read-out: AC50
T3 sequence (P33261 whole entry): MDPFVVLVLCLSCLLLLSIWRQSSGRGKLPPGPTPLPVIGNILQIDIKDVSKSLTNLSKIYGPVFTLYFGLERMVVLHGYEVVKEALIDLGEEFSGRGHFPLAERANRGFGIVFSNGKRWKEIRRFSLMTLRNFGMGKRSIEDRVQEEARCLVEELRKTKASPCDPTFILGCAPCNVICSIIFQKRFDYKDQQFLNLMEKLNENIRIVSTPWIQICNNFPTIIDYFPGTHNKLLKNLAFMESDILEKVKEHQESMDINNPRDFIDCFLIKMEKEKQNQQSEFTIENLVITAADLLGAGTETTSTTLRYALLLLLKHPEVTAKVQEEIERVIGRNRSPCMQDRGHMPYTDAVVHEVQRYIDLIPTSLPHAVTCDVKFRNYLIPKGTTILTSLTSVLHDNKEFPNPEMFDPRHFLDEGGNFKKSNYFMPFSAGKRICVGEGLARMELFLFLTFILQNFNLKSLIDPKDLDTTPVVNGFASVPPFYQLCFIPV

[12] = target: T3, Cytochrome P450 2C19; experiment: qHTS Assay for Inhibitors and Substrates of Cytochrome P450 2C19. [Related pubchem assays: 410 ]; type: ADME; conditions: read-out: Potency
[13] = target: Cytochrome P450 2D6 (Homo sapiens, UniProt P10635);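 further: CYP2D6 member of a cytochrome P450 panel assay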
Cytochrome P450 2D6, sequence (P10635 whole entry): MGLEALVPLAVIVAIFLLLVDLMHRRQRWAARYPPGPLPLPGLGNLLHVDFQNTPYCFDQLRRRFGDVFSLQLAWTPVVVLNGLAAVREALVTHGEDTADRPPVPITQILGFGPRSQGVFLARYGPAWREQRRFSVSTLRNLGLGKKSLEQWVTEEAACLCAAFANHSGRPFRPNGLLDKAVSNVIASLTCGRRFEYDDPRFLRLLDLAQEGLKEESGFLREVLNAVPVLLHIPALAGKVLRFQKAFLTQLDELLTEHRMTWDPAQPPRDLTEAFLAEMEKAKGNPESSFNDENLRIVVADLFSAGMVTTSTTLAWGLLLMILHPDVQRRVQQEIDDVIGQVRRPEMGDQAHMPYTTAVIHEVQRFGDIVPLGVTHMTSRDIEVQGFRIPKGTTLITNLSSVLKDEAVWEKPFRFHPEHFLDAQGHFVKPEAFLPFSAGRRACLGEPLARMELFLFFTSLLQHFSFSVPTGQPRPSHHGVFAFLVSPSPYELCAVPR

[14] = target: Muscarinic acetylcholine receptor M1 (Rattus norvegicus, UniProt P08482); experiment: concentration-dependent potentiation of ACh at M1 – cell-based, calcium mobilization, CHO-K1, ACh EC20, dose response (AID 2425); type: functional
Muscarinic acetylcholine receptor M1, sequence (P08482 whole entry): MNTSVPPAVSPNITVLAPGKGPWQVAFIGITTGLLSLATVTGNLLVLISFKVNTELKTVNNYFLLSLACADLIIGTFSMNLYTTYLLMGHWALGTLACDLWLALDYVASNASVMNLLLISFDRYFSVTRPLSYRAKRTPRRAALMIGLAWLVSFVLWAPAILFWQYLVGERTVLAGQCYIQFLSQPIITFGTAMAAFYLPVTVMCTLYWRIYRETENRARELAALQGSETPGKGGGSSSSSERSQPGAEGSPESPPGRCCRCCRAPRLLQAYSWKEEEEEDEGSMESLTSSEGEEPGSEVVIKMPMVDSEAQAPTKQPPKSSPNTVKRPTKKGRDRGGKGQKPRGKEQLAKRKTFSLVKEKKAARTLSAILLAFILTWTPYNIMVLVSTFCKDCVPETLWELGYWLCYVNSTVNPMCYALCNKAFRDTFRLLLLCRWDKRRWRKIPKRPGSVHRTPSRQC

[15] = target: Protein Tat (Human immunodeficiency virus type 1 group M subtype B (isolate HXB2)(HIV-1), UniProt P04608); type: functional;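 further: tat binding to TAR RNA read out by fluorescence polarization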
Protein Tat, sequence (P04608 whole entry): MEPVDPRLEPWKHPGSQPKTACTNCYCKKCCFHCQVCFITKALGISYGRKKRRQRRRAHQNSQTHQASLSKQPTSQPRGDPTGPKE

[16] = target: Induced myeloid leukemia cell differentiation protein Mcl-1 (Homo sapiens, UniProt Q07820); experiment: blockers of MCL1 binding to BIM peptide – biochemical, fluorescence polarization, BIM-BH3 peptide, 1536-well, dose response (AID 2217)
Induced myeloid leukemia cell differentiation protein Mcl-1, sequence (Q07820 whole entry): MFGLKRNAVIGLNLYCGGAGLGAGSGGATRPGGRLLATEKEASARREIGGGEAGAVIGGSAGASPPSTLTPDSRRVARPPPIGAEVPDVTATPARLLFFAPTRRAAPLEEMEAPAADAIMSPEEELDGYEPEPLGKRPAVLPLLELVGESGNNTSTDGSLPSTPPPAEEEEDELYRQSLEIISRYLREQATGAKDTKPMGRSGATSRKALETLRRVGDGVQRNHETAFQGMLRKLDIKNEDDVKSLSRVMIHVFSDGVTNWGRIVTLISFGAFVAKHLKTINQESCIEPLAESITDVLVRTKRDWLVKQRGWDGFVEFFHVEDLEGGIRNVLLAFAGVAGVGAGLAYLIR

[17] = target: Caspase-8 (Homo sapiens, UniProt Q14790); experiment: inhibitors of purified CASP8 protease – biochemical, Z-IETD-R110 fluorescence, cherry-picked samples, selectivity assay for caspase-6 inhibitor project, dose response (AID 743294)
Caspase-8, sequence (Q14790 217-374 limits assumed): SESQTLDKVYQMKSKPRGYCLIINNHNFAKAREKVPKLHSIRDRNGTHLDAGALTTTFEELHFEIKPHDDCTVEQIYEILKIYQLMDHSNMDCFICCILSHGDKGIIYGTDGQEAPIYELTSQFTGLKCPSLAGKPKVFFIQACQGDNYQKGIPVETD
Caspase-8, sequence (Q14790 385-479 limits assumed): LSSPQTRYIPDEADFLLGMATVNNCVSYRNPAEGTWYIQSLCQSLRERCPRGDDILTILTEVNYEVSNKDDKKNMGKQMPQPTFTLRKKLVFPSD

[18] = target: Caspase-7 (Homo sapiens, UniProt P55210); experiment: caspase-7 enzyme inhibition, selectivity check – biochemical, DEVD-R110 fluorescence, cherry-pick, selectivity assay for caspase-6 inhibitor project, dose response (AID 743295); type: functional
Caspase-7, sequence (P55210 24-198 limits assumed): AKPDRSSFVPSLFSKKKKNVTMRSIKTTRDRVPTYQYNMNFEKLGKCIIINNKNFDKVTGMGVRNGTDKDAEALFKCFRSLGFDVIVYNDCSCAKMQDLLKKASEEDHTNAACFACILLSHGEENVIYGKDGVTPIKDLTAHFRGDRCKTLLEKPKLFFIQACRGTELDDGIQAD
Caspase-7, sequence (P55210 207-303 limits assumed): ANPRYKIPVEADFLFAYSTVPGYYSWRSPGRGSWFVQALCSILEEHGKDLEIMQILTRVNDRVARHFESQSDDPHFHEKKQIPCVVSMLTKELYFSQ

[19] = target: Bcl-2-like protein 1 (Homo sapiens, UniProt Q07817); experiment: blockers of BCLXL peptide binding – biochemical, fluorescence polarization, 1536-well, selectivity assay for MCL1 inhibitor project, dose response (AID 2218)
Bcl-2-like protein 1, sequence (Q07817 whole entry): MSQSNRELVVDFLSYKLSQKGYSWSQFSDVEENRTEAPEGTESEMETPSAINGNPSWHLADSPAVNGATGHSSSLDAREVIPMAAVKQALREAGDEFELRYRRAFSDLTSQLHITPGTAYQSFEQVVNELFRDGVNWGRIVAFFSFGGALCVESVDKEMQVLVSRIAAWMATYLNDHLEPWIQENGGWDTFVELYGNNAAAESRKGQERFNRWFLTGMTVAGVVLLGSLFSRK

[20] = target: T4, Caspase-6 (Homo sapiens, UniProt P55212); experiment: inhibition of CASP6 peptide cleavage – biochemical, VEID-R110 fluorescence, cherry-pick, dose response (AID 720632)
T4 sequence (P55212 whole entry): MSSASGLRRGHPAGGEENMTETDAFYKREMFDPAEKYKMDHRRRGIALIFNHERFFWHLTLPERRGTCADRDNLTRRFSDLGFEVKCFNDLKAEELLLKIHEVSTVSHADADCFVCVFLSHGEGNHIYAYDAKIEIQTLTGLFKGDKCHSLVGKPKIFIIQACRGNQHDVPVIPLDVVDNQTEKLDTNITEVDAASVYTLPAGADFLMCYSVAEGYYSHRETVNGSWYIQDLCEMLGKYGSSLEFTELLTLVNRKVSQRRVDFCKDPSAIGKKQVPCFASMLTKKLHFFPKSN

[21] = target: T5, Carboxy-terminal domain RNA polymerase II polypeptide A small phosphatase 1 (Homo sapiens, UniProt Q9GZU7); experiment: CTDSP1 inhibitors, concentration-response, biochemical, absorbance readout, ultra-high-throughput screen actives (AID 540297); type: functional
T5 sequence (Q9GZU7 whole entry): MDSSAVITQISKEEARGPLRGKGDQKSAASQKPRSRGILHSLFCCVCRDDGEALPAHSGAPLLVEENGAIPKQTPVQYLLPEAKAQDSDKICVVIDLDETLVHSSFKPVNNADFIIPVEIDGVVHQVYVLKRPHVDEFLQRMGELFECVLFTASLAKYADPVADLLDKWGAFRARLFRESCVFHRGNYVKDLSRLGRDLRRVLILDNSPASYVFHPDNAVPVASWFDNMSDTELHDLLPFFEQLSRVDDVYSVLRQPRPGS

[22] = African trypanosome bloodstream form growth inhibition – STIB900 strain, plate reader, cherry pick, dose response (AID 651893); type: functional, cell-based, Trypanosoma brucei rhodesiense; conditions: Trypanosoma brucei
[23] = antileishmanial activity on axenic amastigotes – plate reader, cherry pick, dose response (AID 651891); type: functional, cell-based; conditions: Leishmania donovani
[24] = L6 myocyte viability loss – cell-based, plate reader, cherry-pick, cytotoxicity control, dose response (AID 651896); type: functional
[25] = T. cruzi growth inhibition in host cells, dose response, cell-based, plate reader, dry powder, set 2 (AID 652275); type: functional
[26] = intracellular Trypanosoma cruzi inhibitors in host cells – cell-based, plate reader, cherry-pick samples, set 3, dose response (AID 651818); type: functional;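 further: compounds incubated with infected cells for about four days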
[27] = anti-trypanosomal activity in BESM host cells – imaging, CA-I/72 strain, bovine embryo skeletal muscle, dry powder, dose response (AID 651885); type: functional, cell-based
[28] = Trypanosoma cruzi replication inhibitors in host cells – cell-based, plate reader, dry powder samples, dose response (AID 651845); type: functional
[29] = Inhibition of T. cruzi Tulahuen strain amastigotes in L-6 muscle cells Measured in Cell-Based and Microorganism Combination System Using Plate Reader - 2138-03_Inhibitor_Dose_CherryPick_Activity.; type: functional; conditions: Rattus norvegicus, L6
[30] = Inhibition of Plasmodium falciparum NF54 Measured in Cell-Based System Using Plate Reader - 2138-11_Inhibitor_Dose_CherryPick_Activity.; type: functional
[31] = glucagon-like peptide-1 release potency in STC-1, concentration-response, half-maximal inhibitory concentration in the STC-1 line (AID 1117345); type: functional, cell-based
[32] = Potency on glucagon-like peptide 1 release, dose-response in NCI-H716 cell line, half maximal inhibitory concentration (AID 1117344); type: functional, cell-based

Structure (SMILES): C[C@H](CO)N1C[C@H](C)[C@H](CN(C)S(=O)(=O)c2ccc(F)cc2)OCc2ccccc2-c2c(n(C)c3ccccc23)C1=O
AC50 [1]: 1.1 µM (active) | AC50 [2]: 7.35 µM (active) | AC50 [3]: 0.572 µM (active) | AC50 [4]: 0.481 µM (active) | AC50 [5]: 0.36 µM (active)

Structure (SMILES): COC(=O)Nc1nc2cc(C(=O)c3ccccc3)ccc2[nH]1 [MEBENDAZOLE]
IC50 [6]: 0.08 µM (active) | IC50 [7]: 0.0761 µM (active)

Structure (SMILES): Cn1cc(-c2ccc(CN3C(=O)C(=O)c4ccccc43)c(F)c2)cn1
EC50 [14]: 0.845 µM (active)

Structure (SMILES): COc1ccc(CN(C)C[C@H]2Oc3c(NC(=O)c4ccncc4)cccc3C(=O)N([C@@H](C)CO)C[C@@H]2C)cc1
IC50 [22]: 15.4 µM (inactive) | IC50 [23]: > 100 µM (inactive) | IC50 [24]: > 100 µM (inactive) | AC50 [25]: 0.127 µM (active) | AC50 [26]: 0.25 µM (active) | IC50 [27]: 0.478 µM (active) | AC50 [28]: 0.127 µM (active) | IC50 [29]: 8.41 µM (inactive) | IC50 [30]: 8.41 µM (inactive)

Structure (SMILES): c1ccc2sc(SSc3nc4ccccc4s3)nc2c1 [BENZOTHIAZYL DISULFIDE]
IC50 [31]: 5.58 µM (inactive) | IC50 [32]: 9.23 µM (inactive)

Next, values leading:

IC50 [8]: > 100 µM (not active) | EC50 [9]: 0.0155 µM (active) | EC50 [10]: 31.6 nM (active) and 61.1 nM (active)
Structure (SMILES): Cc1ccc(OCC(=O)Nc2ccc(-c3nc4ncccc4o3)cc2)cc1

AC50 [11]: 0.251 µM (inconclusive) | AC50 [12]: 0.001 µM (inconclusive) | AC50 [13]: 0.251 µM (inconclusive)
Structure (SMILES): O=[N+]([O-])c1cccc2c(Br)n[nH]c12

IC50 [15]: > 100 µM (active) | IC50 [16]: 10.9 µM (not active) | AC50 [17]: > 70 µM (inactive) | AC50 [18]: > 70 µM (inactive) | IC50 [19]: > 109 µM (not active) | AC50 [20]: 4.58 µM (active) | IC50 [21]: 6.04 µM (active)
Structure (SMILES): Cc1ccc(C)c(NC(=O)CN(C)C(=O)c2cccc(-n3cccc3)c2)c1
